# According to patent publication US12344610B2, “APOL1 inhibitors and methods of use” (Maze Therapeutics, Inc., priority 2022, dated 2025):
# Target: T1, APOL1 G2 (Homo sapiens, UniProt O14791, DEL388-389)
# T1 construct: expressed in transfected cells; host or cells: HEK293 T-REx clonal line stably expressing GCaMP6f (HEK T-REx/GCaMP6f/APOL1 G2 K6.3), doxycycline induced
# T1 sequence (O14791 with tags, fused parts or gaps DEL388-389): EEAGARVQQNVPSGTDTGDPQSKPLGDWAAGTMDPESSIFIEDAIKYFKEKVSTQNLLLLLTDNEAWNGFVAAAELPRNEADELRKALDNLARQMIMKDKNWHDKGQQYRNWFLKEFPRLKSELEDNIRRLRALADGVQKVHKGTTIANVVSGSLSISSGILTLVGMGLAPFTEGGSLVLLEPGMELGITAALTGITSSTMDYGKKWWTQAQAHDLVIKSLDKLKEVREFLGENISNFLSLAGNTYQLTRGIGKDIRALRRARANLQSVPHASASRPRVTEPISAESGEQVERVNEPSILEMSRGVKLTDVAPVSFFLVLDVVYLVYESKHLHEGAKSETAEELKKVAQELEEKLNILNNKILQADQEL
# Experiment: APOL1-mediated calcium transport (calcium influx) assay, HEK T-REx/GCaMP6f/APOL1 G2 K6.3 cells, FLIPR TETRA
# Assay type: cell-based
# Settings: prevention of calcium influx; geometric mean of at least 2 assay runs; † = average of a technical replicate from a single assay run
# In short: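 A HEK293 T-REx clone stably expressing GCaMP6f had APOL1 G2 induced with doxycycline (20 ng/mL solution added) for 6 h. Cells were then washed into Ca2+-free Tyrode's buffer (pH 7.4) and preincubated with compounds (duplicate 8-point) for 10 min at room temperature. Ca2+ injection to 5 mM final produced FLIPR GCaMP fluorescence, giving AC50 for influx inhibition (geometric mean, ≥2 runs).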
row,SMILES,AC50 [nM]
1,"CN1C(=O)C2(CCN(CCOc3cc(F)c(C(=O)N4CCS(=O)(=O)CC4)c(F)c3)CC2)c2cc(C#N)ccc21 [Compound 260, 1′-{2-[4-(1,1-dioxo-1λ^6-thiomorpholine-4-carbonyl)-3,5-difluorophenoxy]ethyl}-1-methyl-2-oxo-1,2-dihydrospiro[indole-3,4′-piperidine]-5-carbonitrile]",1380
2,"CN1C(=O)C2(CCN(CCOc3ccc(C(=O)N4CCS(=O)(=O)CC4)c(C(F)(F)F)c3)CC2)c2cc(C#N)ccc21 [Compound 261, 1′-{2-[4-(1,1-dioxo-1λ^6-thiomorpholine-4-carbonyl)-3-(trifluoromethyl)phenoxy]ethyl}-1-methyl-2-oxo-1,2-dihydrospiro[indole-3,4′-piperidine]-5-carbonitrile]",1460
3,"CS(=O)(=O)c1ccc(OCCN2CCC3(CC2)C(=O)N(CCO)c2ccc(Cl)cc23)cc1C(F)F [Compound 265, 5-chloro-1′-{2-[3-(difluoromethyl)-4-methanesulfonylphenoxy]ethyl}-1-(2-hydroxyethyl)-1,2-dihydrospiro[indole-3,4′-piperidin]-2-one]",697
4,"CS(=O)(=O)c1ccc(OCCN2CCC3(CC2)C(=O)N(CCO)c2ccc(C#N)cc23)cc1C(F)F [Compound 266, 1′-{2-[3-(difluoromethyl)-4-methanesulfonylphenoxy]ethyl}-1-(2-hydroxyethyl)-2-oxo-1,2-dihydrospiro[indole-3,4′-piperidine]-5-carbonitrile]",862
5,"O=C(c1ccc(OCCN2CCC3(CC2)C(=O)Nc2ccc(Cl)cc23)cc1C(F)(F)F)N1CCS(=O)(=O)CC1 [Compound 272, 4-[4-(2-{5-chloro-2-oxo-1,2-dihydrospiro[indole-3,4′-piperidin]-1′-yl}ethoxy)-2-(trifluoromethyl)benzoyl]-1λ^6-thiomorpholine-1,1-dione]",921
6,"CS(=O)(=O)N1CC2(CN(C(=O)c3ccc(OCCN4CCC5(CC4)C(=O)Nc4ccc(Cl)cc45)cc3F)C2)C1 [Compound 273, 5-chloro-1′-[2-(3-fluoro-4-{6-methanesulfonyl-2,6-diazaspiro[3.3]heptane-2-carbonyl}phenoxy)ethyl]-1,2-dihydrospiro[indole-3,4′-piperidin]-2-one]",2100
7,"C[C@]1(O)C[C@@H](N2C(=O)CCc3cc(OCCN4CCC5(CC4)C(=O)Nc4ccc(C(F)F)cc45)cnc32)C1 [Compound 274, 5-(difluoromethyl)-1′-[2-({7-oxo-8-[(cis)-3-hydroxy-3-methylcyclobutyl]-5,6,7,8-tetrahydro-1,8-naphthyridin-3-yl}oxy)ethyl]-1,2-dihydrospiro[indole-3,4′-piperidin]-2-one]",722
8,"C[C@]1(O)C[C@@H](N2C(=O)CCc3cc(OCCN4CCC5(CC4)C(=O)Nc4ccc(Cl)cc45)cnc32)C1 [Compound 275, 5-chloro-1′-[2-({7-oxo-8-[(cis)-3-hydroxy-3-methylcyclobutyl]-5,6,7,8-tetrahydro-1,8-naphthyridin-3-yl}oxy)ethyl]-1,2-dihydrospiro[indole-3,4′-piperidin]-2-one]",640
9,"CS(=O)(=O)C1(c2ncc(OCCN3CCC4(CC3)C(=O)Nc3ccc(Cl)cc34)cn2)COC1 [Compound 276, 5-chloro-1′-(2-{[2-(3-methanesulfonyloxetan-3-yl)pyrimidin-5-yl]oxy}ethyl)-1,2-dihydrospiro[indole-3,4′-piperidin]-2-one]",1750
10,"CS(=O)(=O)C1(c2ncc(OCCN3CCC4(CC3)C(=O)Nc3ccc(C#N)cc34)cc2F)CC1 [Compound 283, 1′-(2-{[5-fluoro-6-(1-methanesulfonylcyclopropyl)pyridin-3-yl]oxy}ethyl)-2-oxo-1,2-dihydrospiro[indole-3,4′-piperidine]-5-carbonitrile]",2000
11,"CC(O)c1ncc(OCCN2CCC3(CC2)C(=O)Nc2ccc(Cl)cc23)cn1 (stereo not drawn) [Compound 284, 5-chloro-1′-(2-{[2-(1-hydroxyethyl)pyrimidin-5-yl]oxy}ethyl)-1,2-dihydrospiro[indole-3,4′-piperidin]-2-one]",756
12,"C[C@]1(O)C[C@@H](N2C(=O)OCc3cc(OCCN4CCC5(CC4)C(=O)Nc4ccc(Cl)cc45)cnc32)C1 [Compound 289, 5-chloro-1′-[2-({2-oxo-1-[(cis)-3-hydroxy-3-methylcyclobutyl]-1H,2H,4H-pyrido[2,3-d][1,3]oxazin-6-yl]oxy)ethyl]-1,2-dihydrospiro[indole-3,4′-piperidin]-2-one]",552
13,"CC1(O)CN(c2ncc(OCCN3CCC4(CC3)C(=O)Nc3ccc(Cl)cc34)cn2)C1 [Compound 300, 5-chloro-1′-(2-{[2-(3-hydroxy-3-methylazetidin-1-yl)pyrimidin-5-yl]oxy}ethyl)-1,2-dihydrospiro[indole-3,4′-piperidin]-2-one]",674
14,"O=C1Nc2ccc(Cl)cc2C12CCN(CCOc1cnc(N3CC(O)C3)nc1)CC2 [Compound 301, 5-chloro-1′-(2-{[2-(3-hydroxyazetidin-1-yl)pyrimidin-5-yl]oxy}ethyl)-1,2-dihydrospiro[indole-3,4′-piperidin]-2-one]",586
15,"CS(=O)(=O)C1CN(c2ncc(OCCN3CCC4(CC3)C(=O)Nc3ccc(Cl)cc34)cn2)C1 [Compound 302, 5-chloro-1′-(2-{[2-(3-methanesulfonylazetidin-1-yl)pyrimidin-5-yl]oxy}ethyl)-1,2-dihydrospiro[indole-3,4′-piperidin]-2-one]",1030
16,"CC(C)(O)c1ncc(OCCN2CCC3(CC2)C(=O)Nc2ccc(Cl)cc23)cn1 [Compound 305, 5-chloro-1′-(2-{[2-(2-hydroxypropan-2-yl)pyrimidin-5-yl]oxy}ethyl)-1,2-dihydrospiro[indole-3,4′-piperidin]-2-one]",649
17,"CC1(O)CN(c2nccc3cc(OCCN4CCC5(CC4)C(=O)Nc4ccc(Cl)cc45)cnc23)C1 [Compound 306, 5-chloro-1′-(2-{[8-(3-hydroxy-3-methylazetidin-1-yl)-1,7-naphthyridin-3-yl]oxy}ethyl)-1,2-dihydrospiro[indole-3,4′-piperidin]-2-one]",1400
18,"O=C1Nc2ccc(Cl)cc2C12CCN(CCOc1cnc3c(N4CC(O)C4)nccc3c1)CC2 [Compound 314, 5-chloro-1′-(2-{[8-(3-hydroxyazetidin-1-yl)-1,7-naphthyridin-3-yl]oxy}ethyl)-1,2-dihydrospiro[indole-3,4′-piperidin]-2-one]",968
